# Laboratory results published in patent US20120122148A1, “Media For The Specific Detection Of Gram-Negative Bacteria Resistant To Beta-Lactam Antibiotics” (bioMerieux, SA, priority 2009, published 2012).
# System: Escherichia coli 0505101 (ESBL)
# Experiment: Growth and enzymatic activity on ChromID CPS-based selective media
# Type: cell-based
# Set-up: Enz act.: key to the marks not given beside the values
# Conditions: 18 h at 37° C.; cefpodoxime 4 mg/l (T), cefepime 0.25 mg/l (A), cefamandole 3 mg/l (B), cefuroxime 3 mg/l (C), each with 300 mg/l cloxacillin
# Source text: (§1) Choice of strains: The inventors selected strains which make it possible to evaluate the activity of antibiotics with respect to Gram-negative species: enterobacteria and nonfermenting bacilli. In particular, ESBL-producing strains, high-level cephalosporinase-producing strains (HL Case) and strains without a particular resistance profile, termed wild-type strains, were used.
# (§2) Preparation of media: The media tested were media composed of the peptone base of the ChromID CPS medium (bioMérieux ref 43541) to which were added, after autoclaving, in molten media, 300 mg/l cloxacillin and, for medium T: 4 mg/l cefpodoxime, for medium A: 0.25 mg/L of cefepime, for medium B: 3 mg/l of cefamandole and for medium C: 3 mg/l of cefuroxime.
# (§3) Inoculation of media: The media are inoculated by carrying out a 3-quadrant streaking method using bacterial suspensions at 0.5 McF. The media are then incubated for 24 hours at 37° C.
# (§4) Reading of media: The media are observed visually after 18 h and 24 hours of incubation, the growth density and also the colorations and coloration strengths are evaluated according to the scale below: • − or 0: absence of growth or of expression of enzymatic acitivity (i.e. no coloration) • +: weak growth, or enzymatic activity • ++: very strong growth density or strong enzymatic acitivity (very strong coloration)
Structure (SMILES),Enz act.,Growth
"COCC1=C(C(=O)O)N2C(=O)[C@@H](NC(=O)/C(=N\OC)c3csc(N)n3)[C@H]2SC1 [Cefpodoxime, cefpodoxime]",++,+

# Same assay, conditions: 24 h at 37° C.; cefpodoxime 4 mg/l (T), cefepime 0.25 mg/l (A), cefamandole 3 mg/l (B), cefuroxime 3 mg/l (C), each with 300 mg/l cloxacillin
Structure (SMILES),Enz act.,Growth
"COCC1=C(C(=O)O)N2C(=O)[C@@H](NC(=O)/C(=N\OC)c3csc(N)n3)[C@H]2SC1 [Cefpodoxime, cefpodoxime]",++,++

# System: Klebsiella oxytoca 0502094 (ESBL)
# Experiment: as above
# Type: cell-based
# Set-up: key to the marks not given beside the values
# Conditions: 18 h at 37° C.; cefpodoxime 4 mg/l (T), cefepime 0.25 mg/l (A), cefamandole 3 mg/l (B), cefuroxime 3 mg/l (C), each with 300 mg/l cloxacillin
# Source text: as §1, §2, §3, §4
Structure (SMILES),Enz act.,Growth
"COCC1=C(C(=O)O)N2C(=O)[C@@H](NC(=O)/C(=N\OC)c3csc(N)n3)[C@H]2SC1 [Cefpodoxime, cefpodoxime]",++,++

# Same assay, conditions: 24 h at 37° C.; cefpodoxime 4 mg/l (T), cefepime 0.25 mg/l (A), cefamandole 3 mg/l (B), cefuroxime 3 mg/l (C), each with 300 mg/l cloxacillin
Structure (SMILES),Enz act.,Growth
"COCC1=C(C(=O)O)N2C(=O)[C@@H](NC(=O)/C(=N\OC)c3csc(N)n3)[C@H]2SC1 [Cefpodoxime, cefpodoxime]",++,++

# System: Enterobacter spp 9306069 (HL case)
# Experiment: as above
# Type: cell-based
# Set-up: key to the marks not given beside the values
# Conditions: 18 h at 37° C.; cefpodoxime 4 mg/l (T), cefepime 0.25 mg/l (A), cefamandole 3 mg/l (B), cefuroxime 3 mg/l (C), each with 300 mg/l cloxacillin
# Source text: as §1, §2, §3, §4
Structure (SMILES),Enz act.,Growth
"COCC1=C(C(=O)O)N2C(=O)[C@@H](NC(=O)/C(=N\OC)c3csc(N)n3)[C@H]2SC1 [Cefpodoxime, cefpodoxime]",++,++

# Same assay, conditions: 24 h at 37° C.; cefpodoxime 4 mg/l (T), cefepime 0.25 mg/l (A), cefamandole 3 mg/l (B), cefuroxime 3 mg/l (C), each with 300 mg/l cloxacillin
Structure (SMILES),Enz act.,Growth
"COCC1=C(C(=O)O)N2C(=O)[C@@H](NC(=O)/C(=N\OC)c3csc(N)n3)[C@H]2SC1 [Cefpodoxime, cefpodoxime]",++,++

# System: Enterobacter aerogenes 0502112 (ESBL)
# Experiment: as above
# Type: cell-based
# Set-up: key to the marks not given beside the values
# Conditions: 18 h at 37° C.; cefpodoxime 4 mg/l (T), cefepime 0.25 mg/l (A), cefamandole 3 mg/l (B), cefuroxime 3 mg/l (C), each with 300 mg/l cloxacillin
# Source text: as §1, §2, §3, §4
Structure (SMILES),Enz act.,Growth
"COCC1=C(C(=O)O)N2C(=O)[C@@H](NC(=O)/C(=N\OC)c3csc(N)n3)[C@H]2SC1 [Cefpodoxime, cefpodoxime]",++,++

# Same assay, conditions: 24 h at 37° C.; cefpodoxime 4 mg/l (T), cefepime 0.25 mg/l (A), cefamandole 3 mg/l (B), cefuroxime 3 mg/l (C), each with 300 mg/l cloxacillin
Structure (SMILES),Enz act.,Growth
"COCC1=C(C(=O)O)N2C(=O)[C@@H](NC(=O)/C(=N\OC)c3csc(N)n3)[C@H]2SC1 [Cefpodoxime, cefpodoxime]",++,++

# System: Escherichia coli 0411146 (ESBL)
# Experiment: as above
# Type: cell-based
# Set-up: key to the marks not given beside the values
# Conditions: 18 h at 37° C.; cefpodoxime 4 mg/l (T), cefepime 0.25 mg/l (A), cefamandole 3 mg/l (B), cefuroxime 3 mg/l (C), each with 300 mg/l cloxacillin
# Source text: as §1, §2, §3, §4
Structure (SMILES),Enz act.,Growth
"COCC1=C(C(=O)O)N2C(=O)[C@@H](NC(=O)/C(=N\OC)c3csc(N)n3)[C@H]2SC1 [Cefpodoxime, cefpodoxime]",++,++

# Same assay, conditions: 24 h at 37° C.; cefpodoxime 4 mg/l (T), cefepime 0.25 mg/l (A), cefamandole 3 mg/l (B), cefuroxime 3 mg/l (C), each with 300 mg/l cloxacillin
Structure (SMILES),Enz act.,Growth
"COCC1=C(C(=O)O)N2C(=O)[C@@H](NC(=O)/C(=N\OC)c3csc(N)n3)[C@H]2SC1 [Cefpodoxime, cefpodoxime]",++,++

# System: Proteus mirabilis 0105105 (HL case)
# Experiment: as above
# Type: cell-based
# Conditions: 18 h at 37° C.; cefpodoxime 4 mg/l (T), cefepime 0.25 mg/l (A), cefamandole 3 mg/l (B), cefuroxime 3 mg/l (C), each with 300 mg/l cloxacillin
# Source text: as §1, §2, §3, §4
Structure (SMILES),Enz act.,Growth
"COCC1=C(C(=O)O)N2C(=O)[C@@H](NC(=O)/C(=N\OC)c3csc(N)n3)[C@H]2SC1 [Cefpodoxime, cefpodoxime]",−,−

# Same assay, conditions: 24 h at 37° C.; cefpodoxime 4 mg/l (T), cefepime 0.25 mg/l (A), cefamandole 3 mg/l (B), cefuroxime 3 mg/l (C), each with 300 mg/l cloxacillin
Structure (SMILES),Enz act.,Growth
"COCC1=C(C(=O)O)N2C(=O)[C@@H](NC(=O)/C(=N\OC)c3csc(N)n3)[C@H]2SC1 [Cefpodoxime, cefpodoxime]",−,−

# System: Proteus mirabilis 0105109 (HL case)
# Experiment: as above
# Type: cell-based
# Conditions: 18 h at 37° C.; cefpodoxime 4 mg/l (T), cefepime 0.25 mg/l (A), cefamandole 3 mg/l (B), cefuroxime 3 mg/l (C), each with 300 mg/l cloxacillin
# Source text: as §1, §2, §3, §4
Structure (SMILES),Enz act.,Growth
"COCC1=C(C(=O)O)N2C(=O)[C@@H](NC(=O)/C(=N\OC)c3csc(N)n3)[C@H]2SC1 [Cefpodoxime, cefpodoxime]",−,−

# Same assay, conditions: 24 h at 37° C.; cefpodoxime 4 mg/l (T), cefepime 0.25 mg/l (A), cefamandole 3 mg/l (B), cefuroxime 3 mg/l (C), each with 300 mg/l cloxacillin
Structure (SMILES),Enz act.,Growth
"COCC1=C(C(=O)O)N2C(=O)[C@@H](NC(=O)/C(=N\OC)c3csc(N)n3)[C@H]2SC1 [Cefpodoxime, cefpodoxime]",−,−

# System: Proteus mirabilis 9709068 (ESBL)
# Experiment: as above
# Type: cell-based
# Conditions: 18 h at 37° C.; cefpodoxime 4 mg/l (T), cefepime 0.25 mg/l (A), cefamandole 3 mg/l (B), cefuroxime 3 mg/l (C), each with 300 mg/l cloxacillin
# Source text: as §1, §2, §3, §4
Structure (SMILES),Enz act.,Growth
"COCC1=C(C(=O)O)N2C(=O)[C@@H](NC(=O)/C(=N\OC)c3csc(N)n3)[C@H]2SC1 [Cefpodoxime, cefpodoxime]",+,+

# Same assay, conditions: 24 h at 37° C.; cefpodoxime 4 mg/l (T), cefepime 0.25 mg/l (A), cefamandole 3 mg/l (B), cefuroxime 3 mg/l (C), each with 300 mg/l cloxacillin
Structure (SMILES),Enz act.,Growth
"COCC1=C(C(=O)O)N2C(=O)[C@@H](NC(=O)/C(=N\OC)c3csc(N)n3)[C@H]2SC1 [Cefpodoxime, cefpodoxime]",+,+

# System: Enterobacter spp 0503037 (Wild-type)
# Experiment: as above
# Type: cell-based
# Conditions: 18 h at 37° C.; cefpodoxime 4 mg/l (T), cefepime 0.25 mg/l (A), cefamandole 3 mg/l (B), cefuroxime 3 mg/l (C), each with 300 mg/l cloxacillin
# Source text: as §1, §2, §3, §4
Structure (SMILES),Enz act.,Growth
"COCC1=C(C(=O)O)N2C(=O)[C@@H](NC(=O)/C(=N\OC)c3csc(N)n3)[C@H]2SC1 [Cefpodoxime, cefpodoxime]",++,++

# Same assay, conditions: 24 h at 37° C.; cefpodoxime 4 mg/l (T), cefepime 0.25 mg/l (A), cefamandole 3 mg/l (B), cefuroxime 3 mg/l (C), each with 300 mg/l cloxacillin
Structure (SMILES),Enz act.,Growth
"COCC1=C(C(=O)O)N2C(=O)[C@@H](NC(=O)/C(=N\OC)c3csc(N)n3)[C@H]2SC1 [Cefpodoxime, cefpodoxime]",++,++

# System: Morganella morganii 9904104 (HL case)
# Experiment: as above
# Type: cell-based
# Conditions: 18 h at 37° C.; cefpodoxime 4 mg/l (T), cefepime 0.25 mg/l (A), cefamandole 3 mg/l (B), cefuroxime 3 mg/l (C), each with 300 mg/l cloxacillin
# Source text: as §1, §2, §3, §4
Structure (SMILES),Enz act.,Growth
"COCC1=C(C(=O)O)N2C(=O)[C@@H](NC(=O)/C(=N\OC)c3csc(N)n3)[C@H]2SC1 [Cefpodoxime, cefpodoxime]",−,−

# Same assay, conditions: 24 h at 37° C.; cefpodoxime 4 mg/l (T), cefepime 0.25 mg/l (A), cefamandole 3 mg/l (B), cefuroxime 3 mg/l (C), each with 300 mg/l cloxacillin
Structure (SMILES),Enz act.,Growth
"COCC1=C(C(=O)O)N2C(=O)[C@@H](NC(=O)/C(=N\OC)c3csc(N)n3)[C@H]2SC1 [Cefpodoxime, cefpodoxime]",−,−

# System: Klebsiella oxytoca 0105100 (HL case)
# Experiment: as above
# Type: cell-based
# Conditions: 18 h at 37° C.; cefpodoxime 4 mg/l (T), cefepime 0.25 mg/l (A), cefamandole 3 mg/l (B), cefuroxime 3 mg/l (C), each with 300 mg/l cloxacillin
# Source text: as §1, §2, §3, §4
Structure (SMILES),Enz act.,Growth
"COCC1=C(C(=O)O)N2C(=O)[C@@H](NC(=O)/C(=N\OC)c3csc(N)n3)[C@H]2SC1 [Cefpodoxime, cefpodoxime]",++,++

# Same assay, conditions: 24 h at 37° C.; cefpodoxime 4 mg/l (T), cefepime 0.25 mg/l (A), cefamandole 3 mg/l (B), cefuroxime 3 mg/l (C), each with 300 mg/l cloxacillin
Structure (SMILES),Enz act.,Growth
"COCC1=C(C(=O)O)N2C(=O)[C@@H](NC(=O)/C(=N\OC)c3csc(N)n3)[C@H]2SC1 [Cefpodoxime, cefpodoxime]",++,++

# System: Serratia fonticola 8001047 (Wild-type)
# Experiment: as above
# Type: cell-based
# Conditions: 18 h at 37° C.; cefpodoxime 4 mg/l (T), cefepime 0.25 mg/l (A), cefamandole 3 mg/l (B), cefuroxime 3 mg/l (C), each with 300 mg/l cloxacillin
# Source text: as §1, §2, §3, §4
Structure (SMILES),Enz act.,Growth
"COCC1=C(C(=O)O)N2C(=O)[C@@H](NC(=O)/C(=N\OC)c3csc(N)n3)[C@H]2SC1 [Cefpodoxime, cefpodoxime]",+,+

# Same assay, conditions: 24 h at 37° C.; cefpodoxime 4 mg/l (T), cefepime 0.25 mg/l (A), cefamandole 3 mg/l (B), cefuroxime 3 mg/l (C), each with 300 mg/l cloxacillin
Structure (SMILES),Enz act.,Growth
"COCC1=C(C(=O)O)N2C(=O)[C@@H](NC(=O)/C(=N\OC)c3csc(N)n3)[C@H]2SC1 [Cefpodoxime, cefpodoxime]",++,+
